Active and inactive are the calls of the source. No cut-off for these calls is given here.
Legend:
Nucleic Acid = assay: Binding affinity to supercoiled pRYG plasmid DNA assessed as DNA intercalation at 50 uM after 21 hrs by electrophoresis; assay type: nucleic-acid assay
[1] = Selectivity ratio for IC50 of BRCA2-deficient Chinese hamster V-C8 mutant cells to IC50 of BRCA2-proficient Chinese hamster BAC29 mutant cells; assay type: functional, Cricetulus griseus
[2] = Cytotoxicity against BRCA2-deficient Chinese hamster V-C8 mutant cells after 3 days by WST1 cell viability assay; assay type: functional, cell-based; conditions: Cricetulus griseus, WST1, 72 h
[3] = Cytotoxicity against BRCA2-proficient Chinese hamster BAC29 mutant cells after 3 days by WST1 cell viability assay; assay type: functional, cell-based; conditions: Cricetulus griseus, WST1, 72 h

Row | Activity (Nucleic Acid) | Structure (SMILES) | Ratio IC50 [1] | IC50 [2] [nM] | IC50 [3] [nM]
1 | Active | COc1cccc2c1C(=O)c1c(O)c3c(c(O)c1C2=O)C[C@@](O)(C(=O)CO)C[C@@H]3O[C@H]1C[C@H](N)[C@H](O)[C@H](C)O1 | – | – | –
2 | – | CO[C@@]12[C@H](COC(N)=O)C3=C(C(=O)C(C)=C(N)C3=O)N1C[C@@H]1N[C@@H]12 [MITOMYCIN] | 292 | 5 | 400
